Source: US20040121316A1 (priority 2002, published 2004)
“And” between values parts separate entries of the source, which are not always exact repeats. Identical values can stand only once. Like-named read-outs stand apart in the source and are kept apart here.

How the values were obtained:
[1] = biological target: T1, recombinant HIV-1 protease (Human immunodeficiency virus type 1 group M subtype B, UniProt P04585); experiment: biochemical
T1 construct: Enzyme: recombinant HIV-1 protease expressed in E.Coli; purchased Bachem California, Inc. H-9040; host or cells: E. coli

mutant HIV-1 I84V/L90M = experiment: Resistance Evaluation, I84V/L90M fold change; assay type: cell-based; design: scale not given here
[2] = system: wild-type HIV-1 strain IIIB; experiment: microbe, parasite or virus in culture; assay type: cell-based; design: scale not given here
84V90M HIV protease = 84V90M HIV protease (Human immunodeficiency virus type 1 group M subtype B, UniProt P04585, I572V/L578M); experiment: biochemical; design: species or system HIV-1
WT HIV-1 = experiment: microbe, parasite or virus in culture; assay type: cell-based; settings: Human immunodeficiency virus 1, read-out: Cell-based assay (MT-4) EC50/nM WT
HIV-1 84V90M = experiment: microbe, parasite or virus in culture; assay type: cell-based; settings: Human immunodeficiency virus 1, read-out: Cell-based assay (MT-4) EC50/nM 84V90M
HIV-1 30N82I88D = experiment: microbe, parasite or virus in culture; assay type: cell-based; settings: Human immunodeficiency virus 1, read-out: Cell-based assay (MT-4) EC50/nM 30N82I88D
HIV-1 48V54V82A = experiment: microbe, parasite or virus in culture; assay type: cell-based; settings: Human immunodeficiency virus 1, read-out: Cell-based assay (MT-4) EC50/nM 48V54V82A
[3] = EC50 of mutant I84V/L90M relative to wild type, class symbols
[4] = Human immunodeficiency virus 1, IIIB

**Q.** What does the source list for CCOC(=O)C(C)OP(=O)(Cc1ccc2c(c1)CCN(CC(NC(=O)OC1COC3OCCC13)C(O)CN(CC(C)C)S(=O)(=O)c1ccc(OC)cc1)C2)Oc1ccccc1 (stereo not drawn)?
**A.** Ki ([1]; Ki, class symbols, Table 10): 0.1 to 1 nM; I84V/L90M fold change (mutant HIV-1 I84V/L90M; [3]): + (>3 to ≦10)

**Q.** CCOC(=O)C(C)OP(=O)(COc1ccc2c(c1)CCN(CC(NC(=O)OC1COC3OCCC13)C(O)CN(CC(C)C)S(=O)(=O)c1ccc(OC)cc1)C2)Oc1ccccc1 (stereo not drawn) was tested. Which Ki ([1]; Ki, class symbols, Table 10) did it give?
**A.** 0.1 to 1 nM

**Q.** What about the I84V/L90M fold change (mutant HIV-1 I84V/L90M; [3]) of the same molecule?
**A.** + (>3 to ≦10)

**Q.** For COc1ccc(S(=O)(=O)N(CC(C)C)CC(O)C(CC2=CCN(CP(=O)(O)OC(C)C(=O)O)CC2)NC(=O)OC2COC3OCCC23)cc1 (stereo not drawn), which “Ki (pM)” value [1] is on record?
**A.** + + +

**Q.** What about the “EC50 (nM)” value [2] of the same molecule?
**A.** + + +

**Q.** And the I84V/L90M fold change (mutant HIV-1 I84V/L90M; mutant I84V/L90M vs wild type)?
**A.** − (≦3)

**Q.** With CCOC(=O)C(C)OP(=O)(CCN1CC=C(CC(NC(=O)OC2COC3OCCC23)C(O)CN(CC(C)C)S(=O)(=O)c2ccc(OC)cc2)CC1)Oc1ccccc1 (stereo not drawn) as the molecule, how does the Ki ([1]; read-out: Ki) read?
**A.** > 1 nM

**Q.** And the “EC50 (nM)” value [2]?
**A.** + + +

**Q.** What about the I84V/L90M fold change (mutant HIV-1 I84V/L90M; mutant I84V/L90M vs wild type) of the same molecule?
**A.** − (≦3)

**Q.** For COc1ccc(S(=O)(=O)N(CC(C)C)CC(O)C(CN(C)Cc2ccc(P(=O)(O)OC(C)C(=O)O)cc2)NC(=O)OC2COC3OCCC23)cc1 (stereo not drawn), which “Ki (pM)” value [1] is on record?
**A.** + +

**Q.** What about the EC50 ([2]; read-out: EC50) of the same molecule?
**A.** 500 to 5000 nM

**Q.** And the I84V/L90M fold change (mutant HIV-1 I84V/L90M; mutant I84V/L90M vs wild type)?
**A.** + + +

**Q.** CCOC(=O)C(C)OP(=O)(Cc1ccc2c(c1)CCN(C[C@H](NC(=O)O[C@H]1CO[C@H]3OCC[C@H]31)[C@H](O)CN(CC(C)C)S(=O)(=O)c1ccc(OC)cc1)C2)Oc1ccccc1 (stereo partly drawn) was tested. Which “Ki (pM)” value [1] did it give?
**A.** + +

**Q.** And the “EC50 (nM)” value [2]?
**A.** + +

**Q.** What about the I84V/L90M fold change (mutant HIV-1 I84V/L90M; mutant I84V/L90M vs wild type) of the same molecule?
**A.** + +

**Q.** Which results are given for COc1ccc(S(=O)(=O)N(CC(C)C)CC(O)C(Cc2ccc(NCP(=O)(O)O)cc2)NC(=O)OC2COC3OCCC23)cc1 (stereo not drawn)?
**A.** Ki ([1]; read-out: Ki): 0.1 to 1 nM; EC50 (nM) [2]: + +; I84V/L90M fold change (mutant HIV-1 I84V/L90M; mutant I84V/L90M vs wild type): + (>3 to ≦10)

**Q.** O=C(O)c1cccc(CN2C(=O)N(Cc3ccc(O)cc3)C(Cc3ccccc3)C(O)C(O)C2Cc2ccccc2)c1 (stereo not drawn) was tested. Which IC50 (84V90M HIV protease) did it give?
**A.** 174 nM

**Q.** What about the EC50 (WT HIV-1) of the same molecule?
**A.** 3060 nM

**Q.** What about the EC50 (HIV-1 84V90M) of the same molecule?
**A.** > 6000 nM

**Q.** And the EC50 (HIV-1 30N82I88D)?
**A.** 887 nM

**Q.** What does the source list for Nc1n[nH]c2ccc(CN3C(=O)N(Cc4cccc(C(=O)O)c4)C(Cc4ccccc4)C(O)C(O)C3Cc3ccccc3)cc12 (stereo not drawn)?
**A.** IC50 (84V90M HIV protease): 27 nM; EC50 (HIV-1 84V90M): > 6000 nM; EC50 (HIV-1 30N82I88D): > 6000 nM

**Q.** COC(=O)N[C@H](C(=O)N[C@@H](Cc1ccccc1)[C@@H](O)CN(Cc1ccc(-c2ccccn2)cc1)NC(=O)[C@@H](NC(=O)OC)C(C)(C)C)C(C)(C)C [Atazanavir, reference compound] was tested. Which Ki ([1]; Ki) did it give?
**A.** 0.01 to 0.1 nM

**Q.** What about the EC50 [2, 4] of the same molecule?
**A.** < 50 nM

**Q.** And the I84V/L90M fold change (mutant HIV-1 I84V/L90M; [3])?
**A.** +++ (>30)

**Q.** For Nc1n[nH]c2ccc(CN3C(=O)N(CCCCOCP(=O)(O)O)C(Cc4ccccc4)C(O)C(O)C3Cc3ccccc3)cc12 (stereo not drawn) [CH2 OCH2PO3H2], which IC50 (84V90M HIV protease) is on record?
**A.** 205 nM

**Q.** What about the EC50 (WT HIV-1) of the same molecule?
**A.** 1760 nM

**Q.** What about the EC50 (HIV-1 84V90M) of the same molecule?
**A.** > 4240 nM

**Q.** Which results are given for CCOP(=O)(COCCCCN1C(=O)N(Cc2ccc3[nH]nc(N)c3c2)C(Cc2ccccc2)C(O)C(O)C1Cc1ccccc1)OCC (stereo not drawn) [CH2OCH2PO3Et2]?
**A.** IC50 (84V90M HIV protease): 123 nM; EC50 (WT HIV-1): 119 nM; EC50 (HIV-1 84V90M): 3300 nM; EC50 (HIV-1 30N82I88D): 267 nM; EC50 (HIV-1 48V54V82A): 430 nM

**Q.** How did the Ki ([1]; Ki, class symbols, Table 10) turn out when COC(=O)C(C)NP(=O)(COc1ccc(CC(NC(=O)OC2COC3OCCC23)C(O)CN(CC(C)C)S(=O)(=O)c2ccc(OC)cc2)cc1)Oc1ccccc1 (stereo not drawn) [Example 30a] was run?
**A.** 0.01 to 0.1 nM

**Q.** What about the EC50 [2, 4] of the same molecule?
**A.** < 50 nM

**Q.** And the I84V/L90M fold change (mutant HIV-1 I84V/L90M; [3])?
**A.** − (≦3)

**Q.** Which results are given for COc1ccc(S(=O)(=O)N(CC(C)C)CC(O)C(Cc2ccc(OCP(=O)(NC(C)C(=O)OC(C)C)Oc3ccccc3)cc2)NC(=O)OC2COC3OCCC23)cc1 (stereo not drawn) [Example 30c]?
**A.** Ki ([1]; Ki, class symbols, Table 10): 0.01 to 0.1 nM and < 0.01 nM; I84V/L90M fold change (mutant HIV-1 I84V/L90M; [3]): − (≦3)

**Q.** CCCCOC(=O)C(C)NP(=O)(COc1ccc(CC(NC(=O)OC2COC3OCCC23)C(O)CN(CC(C)C)S(=O)(=O)c2ccc(OC)cc2)cc1)Oc1ccccc1 (stereo not drawn) [Example 30d] was tested. Which Ki ([1]; Ki, class symbols, Table 10) did it give?
**A.** 0.01 to 0.1 nM

**Q.** And the EC50 [2, 4]?
**A.** < 50 nM

**Q.** And the I84V/L90M fold change (mutant HIV-1 I84V/L90M; [3])?
**A.** − (≦3)

**Q.** For COc1ccc(S(=O)(=O)N(CC(C)C)CC(O)C(Cc2ccc(OCP(=O)(Oc3ccccc3)OC(C)C(=O)OC(C)C)cc2)NC(=O)OC2COC3OCCC23)cc1 (stereo not drawn) [Example 31a], which Ki ([1]; Ki, class symbols, Table 10) is on record?
**A.** 0.01 to 0.1 nM and < 0.01 nM

**Q.** And the EC50 [2, 4]?
**A.** < 50 nM

**Q.** What about the I84V/L90M fold change (mutant HIV-1 I84V/L90M; [3]) of the same molecule?
**A.** − (≦3)

**Q.** How did the Ki ([1]; Ki, class symbols, Table 10) turn out when CCCCOC(=O)C(C)OP(=O)(COc1ccc(CC(NC(=O)OC2COC3OCCC23)C(O)CN(CC(C)C)S(=O)(=O)c2ccc(OC)cc2)cc1)Oc1ccccc1 (stereo not drawn) [Example 31c] was run?
**A.** 0.01 to 0.1 nM

**Q.** And the EC50 [2, 4]?
**A.** 50 to 500 nM

**Q.** And the I84V/L90M fold change (mutant HIV-1 I84V/L90M; [3])?
**A.** − (≦3)
